Assays:
Type in all cases: cell-based
[1] = target: T1, human TLR8 (Homo sapiens, UniProt Q9NR97); test: TLR8 inhibition reporter assay (HEK-Blue SEAP); conditions: HEK-Blue cells overexpressing human TLR8, stimulated with R848 15.9 μM, 22 hour incubation
T1 construct: host or cells: HEK-Blue cells
T1 sequence (Q9NR97 27-1041): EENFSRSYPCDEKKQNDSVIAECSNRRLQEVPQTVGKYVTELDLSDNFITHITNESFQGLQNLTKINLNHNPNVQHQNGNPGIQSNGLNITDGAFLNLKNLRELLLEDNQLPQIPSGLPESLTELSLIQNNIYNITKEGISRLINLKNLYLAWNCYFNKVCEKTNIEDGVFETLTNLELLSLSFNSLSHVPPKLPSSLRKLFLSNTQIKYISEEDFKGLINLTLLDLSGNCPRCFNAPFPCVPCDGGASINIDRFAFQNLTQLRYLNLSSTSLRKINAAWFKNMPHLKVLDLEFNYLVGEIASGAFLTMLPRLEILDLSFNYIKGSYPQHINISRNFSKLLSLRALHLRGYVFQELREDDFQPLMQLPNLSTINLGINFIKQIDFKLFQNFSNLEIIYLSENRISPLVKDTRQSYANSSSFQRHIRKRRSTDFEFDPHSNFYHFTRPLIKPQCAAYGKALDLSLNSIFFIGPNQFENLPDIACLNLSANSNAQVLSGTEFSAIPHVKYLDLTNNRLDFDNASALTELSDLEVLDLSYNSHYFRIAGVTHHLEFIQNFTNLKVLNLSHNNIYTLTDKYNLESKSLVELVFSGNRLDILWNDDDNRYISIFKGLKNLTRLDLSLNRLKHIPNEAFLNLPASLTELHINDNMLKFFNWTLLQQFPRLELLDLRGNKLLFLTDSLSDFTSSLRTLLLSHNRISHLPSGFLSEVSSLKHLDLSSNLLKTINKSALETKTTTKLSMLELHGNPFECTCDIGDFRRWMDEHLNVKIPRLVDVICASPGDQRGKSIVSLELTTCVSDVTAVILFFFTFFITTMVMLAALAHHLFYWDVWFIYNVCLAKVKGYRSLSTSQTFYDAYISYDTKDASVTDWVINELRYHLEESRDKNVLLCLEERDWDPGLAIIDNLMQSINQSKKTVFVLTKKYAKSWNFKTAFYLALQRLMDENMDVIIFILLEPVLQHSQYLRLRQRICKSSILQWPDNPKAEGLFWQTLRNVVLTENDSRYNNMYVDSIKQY
Summary of the method: (§1)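 HEK-Blue cells with NF-κB/AP-1-driven SEAP reporter; compounds 0.05 nM-50 μM, 30 min pre-treatment at room temperature, then agonist: gardiquimod 7.5 μM (TLR7), R848 15.9 μM (TLR8) or ODN2006 5 nM (TLR9). SEAP read after 22 h at 37 °C; percent inhibition versus agonist-plus-DMSO and reference-inhibitor wells.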

[2] = target: T2, human TLR7 (Homo sapiens, UniProt Q9NYK1); test: TLR7 inhibition reporter assay (HEK-Blue SEAP); conditions: HEK-Blue cells overexpressing human TLR7, stimulated with gardiquimod 7.5 μM, 22 hour incubation
T2 construct: host or cells: HEK-Blue cells
T2 sequence (Q9NYK1 27-1049): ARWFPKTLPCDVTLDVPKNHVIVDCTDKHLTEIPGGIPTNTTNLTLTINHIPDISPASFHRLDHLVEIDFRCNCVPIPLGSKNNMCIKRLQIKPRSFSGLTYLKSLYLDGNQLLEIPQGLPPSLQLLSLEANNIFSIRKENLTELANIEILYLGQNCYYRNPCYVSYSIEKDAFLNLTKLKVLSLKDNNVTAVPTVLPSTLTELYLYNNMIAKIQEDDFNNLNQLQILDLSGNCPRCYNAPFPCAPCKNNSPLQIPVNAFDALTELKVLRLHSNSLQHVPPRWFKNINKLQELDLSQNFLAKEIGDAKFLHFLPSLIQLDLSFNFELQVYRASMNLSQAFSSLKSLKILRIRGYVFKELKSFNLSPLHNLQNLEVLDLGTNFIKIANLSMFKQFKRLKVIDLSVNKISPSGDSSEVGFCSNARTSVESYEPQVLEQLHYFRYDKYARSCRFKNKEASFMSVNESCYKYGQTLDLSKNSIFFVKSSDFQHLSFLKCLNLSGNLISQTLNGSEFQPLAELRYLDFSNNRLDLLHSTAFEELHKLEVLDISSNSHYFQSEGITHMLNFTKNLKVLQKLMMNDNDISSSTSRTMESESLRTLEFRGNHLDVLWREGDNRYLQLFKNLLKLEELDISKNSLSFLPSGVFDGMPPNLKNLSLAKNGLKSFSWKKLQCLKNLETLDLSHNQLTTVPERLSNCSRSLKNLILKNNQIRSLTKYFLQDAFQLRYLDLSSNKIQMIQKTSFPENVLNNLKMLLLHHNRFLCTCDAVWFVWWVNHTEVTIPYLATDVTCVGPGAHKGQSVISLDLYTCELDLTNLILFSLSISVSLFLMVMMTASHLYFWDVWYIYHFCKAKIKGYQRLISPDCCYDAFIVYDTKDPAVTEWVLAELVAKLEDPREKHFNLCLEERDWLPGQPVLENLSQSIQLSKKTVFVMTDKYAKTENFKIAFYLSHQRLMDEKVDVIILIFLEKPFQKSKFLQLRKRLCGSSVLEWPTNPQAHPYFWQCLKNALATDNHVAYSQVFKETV
Summary of the method: as §1

[3] = target: T3, human TLR9 (Homo sapiens, UniProt Q9NR96); test: TLR9 inhibition reporter assay (HEK-Blue SEAP); conditions: HEK-Blue cells overexpressing human TLR9, stimulated with ODN2006 5 nM, 22 hour incubation
T3 construct: host or cells: HEK-Blue cells
T3 sequence (Q9NR96 26-1032): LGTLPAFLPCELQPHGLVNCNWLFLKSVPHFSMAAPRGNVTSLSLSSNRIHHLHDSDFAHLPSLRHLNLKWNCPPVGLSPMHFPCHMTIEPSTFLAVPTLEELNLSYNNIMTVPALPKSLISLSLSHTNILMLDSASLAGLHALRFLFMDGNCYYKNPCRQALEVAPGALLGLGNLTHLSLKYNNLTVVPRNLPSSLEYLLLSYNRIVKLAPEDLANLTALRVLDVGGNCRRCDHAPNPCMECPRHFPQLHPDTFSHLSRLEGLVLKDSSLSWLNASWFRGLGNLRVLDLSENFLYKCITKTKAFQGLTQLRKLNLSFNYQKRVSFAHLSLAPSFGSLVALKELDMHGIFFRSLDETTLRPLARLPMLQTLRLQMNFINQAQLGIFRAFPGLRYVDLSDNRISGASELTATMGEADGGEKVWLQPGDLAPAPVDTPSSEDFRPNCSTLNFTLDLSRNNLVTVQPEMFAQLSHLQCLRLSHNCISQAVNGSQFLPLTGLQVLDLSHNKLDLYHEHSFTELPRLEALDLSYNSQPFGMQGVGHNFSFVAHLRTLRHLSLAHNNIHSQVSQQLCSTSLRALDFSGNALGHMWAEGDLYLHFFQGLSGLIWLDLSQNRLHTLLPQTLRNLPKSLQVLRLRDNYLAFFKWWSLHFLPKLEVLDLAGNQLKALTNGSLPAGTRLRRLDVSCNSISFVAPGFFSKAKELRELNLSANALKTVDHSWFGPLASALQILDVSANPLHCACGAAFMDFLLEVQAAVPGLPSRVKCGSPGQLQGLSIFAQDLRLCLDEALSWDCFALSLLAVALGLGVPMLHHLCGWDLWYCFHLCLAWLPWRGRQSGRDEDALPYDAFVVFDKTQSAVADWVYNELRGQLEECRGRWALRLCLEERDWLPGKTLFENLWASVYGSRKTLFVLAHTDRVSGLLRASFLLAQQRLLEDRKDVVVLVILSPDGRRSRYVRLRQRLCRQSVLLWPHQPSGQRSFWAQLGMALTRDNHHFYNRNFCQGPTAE
Summary of the method: as §1

Row | Structure (SMILES) | IC50 [1] [nM] | IC50 [2] [nM] | IC50 [3] [nM]
1 | Cc1cc(-c2[nH]c3ccc(OCC4CN(C)C4)cc3c2C(C)C)cn2ncnc12 [Example 59, 6-(3-isopropyl-5-((1-methylazetidin-3-yl)methoxy)-1H-indol-2-yl)-8-methyl-[1,2,4]triazolo[1,5-a]pyridine] | 6.8 | 0.5 | 2990
2 | COc1ccc(-c2[nH]c3ccc(OCC(=O)N[C@@H]4CCCNC4)cc3c2C(C)C)cc1OC [Example 137, (R)-2-((2-(3,4-dimethoxyphenyl)-3-isopropyl-1H-indol-5-yl)oxy)-N-(piperidin-3-yl)acetamide] | 9.1 | 142 | 2140
3 | Cc1cc(-c2[nH]c3ccc(OCC4CCN(CCO)CC4)cc3c2C(C)C)cc(C)n1 [Example 71, 2-(4-(((2-(2,6-dimethylpyridin-4-yl)-3-isopropyl-H-indol-5-yl)oxy)methyl)piperidin-1-yl)ethan-1-ol] | 2.5 | 3.8 | 359
4 | Cc1cc(-c2[nH]c3ccc(OCC4CCN(CC(C)(C)O)CC4)cc3c2C(C)C)cc(C)n1 [Example 24, 1-(4-(((2-(2,6-dimethylpyridin-4-yl)-3-isopropyl-1H-indol-5-yl)oxy)methyl)piperidin-1-yl)-2-methylpropan-2-ol] | 3 | 4.3 | 300
5 | Cc1cc(-c2[nH]c3ccc(OCC(=O)N4CC5(CCNCC5)C4)cc3c2C(C)C)ccn1 [Example 141, 2-((3-isopropyl-2-(2-methylpyridin-4-yl)-1H-indol-5-yl)oxy)-1-(2,7-diazaspiro[3.5]nonan-2-yl)ethan-1-one] | 186 | 427 | 625
6 | Cc1c(-c2[nH]c3ccc(OC4CCN(C(C)C)CC4)cc3c2C(C)C)cn(C)c(=O)c1C [Example 48, 5-(3-isopropyl-5-((1-isopropylpiperidin-4-yl)oxy)-1H-indol-2-yl)-1,3,4-trimethylpyridin-2(1H)-one] | 1 | 6.9 | 5040
7 | Cc1c(-c2[nH]c3ccc(OCC4CCN(C(=O)CN(C)C)CC4)cc3c2C(C)C)cn(C)c(=O)c1C [Example 103, 5-(5-((1-(dimethylglycyl)piperidin-4-yl)methoxy)-3-isopropyl-1H-indol-2-yl)-1,3,4-trimethylpyridin-2(1H)-one] | 14.9 | 12.3 | 5400
8 | Cc1cc(-c2[nH]c3ccc(OCC4CCNCC4)cc3c2C(C)C)cc(C)n1 [Example 6, 2-(2,6-dimethylpyridin-4-yl)-3-isopropyl-5-(piperidin-4-ylmethoxy)-1H-indole] | 4.4 | 1.8 | 406
9 | Cc1cc(-c2[nH]c3ccc(O[C@H]4CCCN(CC(=O)N(C)C)C4)cc3c2C(C)C)cn2ncnc12 [Example 83, (S)-2-(3-((3-isopropyl-2-(8-methyl-[1,2,4]triazolo[1,5-a]pyridin-6-yl)-1H-indol-5-yl)oxy)piperidin-1-yl)-N,N-dimethylacetamide] | 28.2 | 1.8 | 5670
10 | CNC(=O)CN1CCC(Oc2ccc3[nH]c(-c4cc(C)c(=O)n(C)c4)c(C(C)C)c3c2)CC1 [Example 112, 2-(4-((2-(1,5-dimethyl-6-oxo-1,6-dihydropyridin-3-yl)-3-isopropyl-1H-indol-5-yl)oxy)piperidin-1-yl)-N-methylacetamide] | 8.9 | 10.2 | > 50000
11 | Cc1cc(-c2[nH]c3ccc(OC4CCC(N(C)C)CC4)cc3c2C(C)C)cn2ncnc12 (stereo not drawn) [Example 64, 4-((3-isopropyl-2-(8-methyl-[1,2,4]triazolo[1,5-a]pyridin-6-yl)-1H-indol-5-yl)oxy)-N,N-dimethylcyclohexan-1-amine] | 10.6 | 0.7 | 2570
12 | Cc1cc(-c2[nH]c3ccc(O[C@H]4CCCN(C(=O)CN(C)C)C4)cc3c2C(C)C)cn2ncnc12 [Example 99, (S)-2-(dimethylamino)-1-(3-((3-isopropyl-2-(8-methyl-[1,2,4]triazolo[1,5-a]pyridin-6-yl)-1H-indol-5-yl)oxy)piperidin-1-yl)ethan-1-one] | 25.2 | 3.1 | 4870
13 | Cc1cc(-c2[nH]c3ccc(OCC4CCCN(C)C4)cc3c2C(C)C)cc(C)n1 (stereo not drawn) [Example 30, 2-(2,6-dimethylpyridin-4-yl)-3-isopropyl-5-((1-methylpiperidin-3-yl)methoxy)-1H-indole] | 2.6 | 2.3 | 304
14 | COc1ccc(-c2[nH]c3ccc(OCC4CCNCC4)cc3c2C(C)C)cc1OC [Example 159, 2-(3,4-dimethoxyphenyl)-3-isopropyl-5-(piperidin-4-ylmethoxy)-1H-indole] | 25.6 | 36.1 | 2320
15 | Cc1cc(-c2[nH]c3ccc(OCC(=O)NCC(C)(C)O)cc3c2C(C)C)ccn1 [Example 151, N-(2-hydroxy-2-methylpropyl)-2-((3-isopropyl-2-(2-methylpyridin-4-yl)-1H-indol-5-yl)oxy)acetamide] | 561 | 404 | > 50000

Source: patent US12030878B2 (BRISTOL-MYERS SQUIBB COMPANY, priority 2017, dated 2024)
